Measurements: patent publication US9404927B2, “Systems and methods for diagnosing and treating cancer” (The Translational Genomics Research Institute, priority 2013, dated 2016)

What was measured:
[1] = system: HGF-induced Fn14 expression in H2073 cells; assay: Immunoblot of HGF-induced Fn14 expression in serum starved H2073 cells; assay type: cell-based, human; settings: for HGF-induced Fn14 expression: inhibitor 10 μM pre-treated 30 minutes, then HGF (20 ng) three hours
Method: FIGS. 5A and 5B illustrate that inhibition of MEK or ERK abrogates HGF-induced expression of Fn14. (FIG. 5A) Serum starved H2073 cells pre-treated with either vehicle, U0126, or LY294002 for 30 minutes were exposed to HGF (20 ng) for three hours. Cells were harvested, total cell lysates were prepared and immunoblotted with antibodies to Fn14. Tubulin was used as a loading control. (FIG. 5B) H1993 cells were treated with either vehicle or U0126 for three hours Immunoblots for phosphorylated ERK1/2 (pERK1/2) and Fn14 were performed with tubulin used as a loading control.
Human NSCLC cell lines H2073 and H1993 (American Type Culture Collection, Manassas, Va.) and mouse cell lines CMT64 and CMT167 (Sigma-Aldrich, St. Louis, Mo.) were maintained in RPMI 1640 (Invitrogen, Carlsbad, Calif.) and DMEM (Invitrogen), respectively, supplemented with 10% heat-inactivated fetal bovine serum (FBS) in a 37° C., 5% CO2 atmosphere. For the HGF stimulation, cells were placed in RPMI 1640 without FBS for 18 hours prior to growth factor exposure.
HGF was purchased from Millipore (Billerica, Mass.). SU11274 and U0126 were purchased from Selleck Chemicals (Houston, Tex.). LY294002 was purchased from Tocris Biosciences (R&D Systems, Minneapolis, Minn.). The final concentrations of inhibitors were SU11274 (2 μM), U0126 (10 μM), and LY294002 (10 μM). Antibodies for immunblot analysis against Fn14, c-Met, and phosphorylated c-Met were purchased from Cell Signaling Technology (Danvers, Mass.), while alpha-tubulin was purchased from Millipore. Immunoblot analysis was performed as previously described (Whitsett T G, et al. (2012) Elevated expression of Fn14 in non-small cell lung cancer correlates with activated EGFR and promotes tumor cell migration and invasion. Am J Pathol 181 1): 111-20).

[2] = system: Fn14 protein expression in H1993 cells; assay: Immunoblot of Fn14 in H1993 cells treated with inhibitors; assay type: cell-based, human; settings: immunoblot vs vehicle
Method: FIGS. 4A-4C illustrate that c-Met amplification enhances Fn14 expression levels in NSCLC cell lines. (FIG. 4A) Total cell lysates were prepared from CMT64 and CMT167 cell lines and immunoblotted with the indicated antibodies. Tubulin was used as a loading control. (FIG. 4B) Total cell lysates were prepared from H2073 (primary adenocarcinoma NSCLC cell line) and H1993 (patient-matched metastatic cell line with known c-Met amplification) and immunoblotted with the indicated antibodies. Tubulin was used as a loading control. (FIG. 4C) H1993 cells were treated with vehicle or SU11274 for 24 hr. Cells were harvested, total cell lysates were prepared and immunoblotted with an antibody against Fn14. Tubulin was used as a loading control. FIGS. 5A and 5B illustrate that inhibition of MEK or ERK abrogates HGF-induced expression of Fn14. […] Cells were harvested, total cell lysates were prepared and immunoblotted with antibodies to Fn14. Tubulin was used as a loading control. […] Human NSCLC cell lines H2073 and H1993 (American Type Culture Collection, Manassas, Va.) and mouse cell lines CMT64 and CMT167 (Sigma-Aldrich, St. Louis, Mo.) were maintained in RPMI 1640 (Invitrogen, Carlsbad, Calif.) and DMEM (Invitrogen), respectively, supplemented with 10% heat-inactivated fetal bovine serum (FBS) in a 37° C., 5% CO2 atmosphere. […]

In the case of `O=c1cc(N2CCOCC2)oc2c(-c3ccccc3)cccc12` [LY294002], the “HGF-induced Fn14 expression” value [1] is reported as “no effect”.

For `Cc1[nH]c(/C=C2\C(=O)Nc3ccc(S(=O)(=O)N(C)c4cccc(Cl)c4)cc32)c(C)c1C(=O)N1CCN(C)CC1` [SU11274], the Fn14 protein expression ([2]; SU11274 2 μM, 24 hr) was “inhibition of the Fn14 protein expression”.

For `N#CC(=C(/N)Sc1ccccc1N)/C(C#N)=C(\N)Sc1ccccc1N` [U0126], the “HGF-induced Fn14 expression” value [1] was “completely abrogated” and the Fn14 protein expression ([2]; U0126 10 μM, three hours) was “significantly decreased”.

In the case of “HGF: hepatocyte growth factor, cognate ligand of c-Met, purchased from Millipore”, the “protein expression of Fn14 on exposure to HGF” value ([1]; HGF (20 ng), three hours) is reported as “enhanced”.
